Measurements reported in patent publication US10596223B2, “JNK inhibitor molecules for treatment of various diseases” (Xigen Inflammation Ltd., priority 2011, dated 2020).
pIC50: −log10 of the molar value. Square brackets hold non-standard residues; d marks the D form. Ends that are not written are not given here. Peptide text beside a SMILES is read from it.

Tests used:
hJNK2 = hJNK2 (Homo sapiens, UniProt P45984); assay: hJNK2 | IC50
Description: (§1) Table printed on a drawing sheet, Fig. 2 Head of the field: hJNK2 | IC50 The patent's description of the figure: FIG. 2: Table illustrating the inhibitory efficacy of several JNK inhibitors (SEQ ID NOs: 193, 2, 3, 5, 6, and 7) according to the present invention. Given are the IC50 values in the nM range, the respective standard error of the mean and the number of experiments performed (n). First copying reader's note: The sheet prints no unit for IC50 and SEM; decimal commas are used and lower-case residue letters are as printed. Where the first naming reader finds the target: head: hJNK2

hJNK3 = hJNK3 (Homo sapiens, UniProt P53779); assay: hJNK3 | IC50
hJNK3, sequence (P53779 whole entry, looked up): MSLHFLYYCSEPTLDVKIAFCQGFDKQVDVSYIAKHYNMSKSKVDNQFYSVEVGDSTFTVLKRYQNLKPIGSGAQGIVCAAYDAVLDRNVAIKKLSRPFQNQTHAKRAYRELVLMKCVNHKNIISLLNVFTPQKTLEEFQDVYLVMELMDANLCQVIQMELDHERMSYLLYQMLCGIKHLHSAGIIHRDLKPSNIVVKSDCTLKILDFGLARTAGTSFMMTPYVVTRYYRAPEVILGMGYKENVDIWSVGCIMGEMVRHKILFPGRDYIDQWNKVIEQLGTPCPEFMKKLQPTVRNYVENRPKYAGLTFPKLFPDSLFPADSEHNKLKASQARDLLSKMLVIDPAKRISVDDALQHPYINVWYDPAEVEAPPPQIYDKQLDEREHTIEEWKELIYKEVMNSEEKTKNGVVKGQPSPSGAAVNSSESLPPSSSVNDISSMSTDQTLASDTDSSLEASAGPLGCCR
Description: as §1, with “hJNK3” for “hJNK2”

hJNK1 = hJNK1 (Homo sapiens, UniProt P45983); assay: hJNK1 | IC50
hJNK1, sequence (P45983 whole entry, looked up): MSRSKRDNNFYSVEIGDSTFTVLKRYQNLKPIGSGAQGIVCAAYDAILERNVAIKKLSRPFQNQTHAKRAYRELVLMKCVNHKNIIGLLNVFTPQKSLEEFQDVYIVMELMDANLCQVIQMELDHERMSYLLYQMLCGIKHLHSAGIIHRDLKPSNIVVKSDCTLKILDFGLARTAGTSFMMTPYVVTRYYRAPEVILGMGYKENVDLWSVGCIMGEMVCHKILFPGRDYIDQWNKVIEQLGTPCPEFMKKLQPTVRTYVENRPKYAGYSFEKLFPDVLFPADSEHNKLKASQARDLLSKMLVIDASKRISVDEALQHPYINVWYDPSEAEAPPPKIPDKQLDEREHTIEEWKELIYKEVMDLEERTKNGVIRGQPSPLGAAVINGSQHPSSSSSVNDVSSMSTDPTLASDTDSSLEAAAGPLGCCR
Description: as §1, with “hJNK1” for “hJNK2”

[1] = tested on: endotoxins-induced uveitis albino rat model; assay: Endotoxins induced uveitis (EIU), single intravenous injection, clinical scoring 24 hours after LPS; assay type: in vivo; set-up: key to clinical score of ocular inflammation, mean score (mean±SEM) / clinical score of ocular inflammation, median: ocular inflammation score per eye, 0 = none to 4 = intense (+1 fibrin); conditions: 20 μg/eye sub-conjunctival, 24 hours after LPS
Protocol: FIG. 28 Clinical evaluation of administration of different amounts of the JNK inhibitor according to SEQ ID NO: 172 in albino rats after intravenous administration (endotoxins induced uveitis model). Form left to right: Vehicle, 0.015 mg/kg (i.v.) of SEQ ID NO: 172; 0.18 mg/kg (i.v.) of SEQ ID NO: 172; 1.8 mg/kg (i.v.) of SEQ ID NO: 172, 2 mg/kg (i.v.) of SEQ ID NO: 197 and 20 μg dexamethasone (administered directly by subconjunctival injection to the eye). Indicated is the clinical score (mean and the SEM).
The anti-inflammatory potency of the JNK inhibitor of SEQ ID NO: 172 was tested in albino rats following intravenous administration (EIU/LPS model). The aim of this study was to determine the effects of single intravenous injections of SEQ ID NO: 172 (0.015, 0.18, and 1.80 mg/kg) on the inflammatory response in an endotoxins-induced uveitis albino rat model and to compare these affects to those obtained with prior art JNK inhibitor of SEQ ID NO: 197 (2 mg/kg). As a further control served phosphate sodic dexamethasone.
Sixty (60) male Lewis rats were randomly divided into six (6) groups of ten (10) animals each. EIU was induced by footpad injection of lipopolysaccharide (LPS, 1 mg/kg). NaCl (0.9%), SEQ ID NO: 197 at 2 mg/kg and SEQ ID NO: 172 at three concentrations (1.80 mg/kg, 0.18 mg/kg and 0.015 mg/kg) were administered by intravenous injection. Phosphate sodic dexamethasone ([…]) was administered by sub-conjunctival injection in both eyes. 24 hours after LPS injection, inflammatory response was evaluated by clinical scoring.
The intensity of clinical ocular inflammation was scored on a scale from 0 to 4 for each eye: • Grade 0 no inflammation • Grade 1 slight iris and conjunctival vasodilation • Grade 2 moderate iris and conjunctival vasodilation with flare • Grade 3 intense iris and conjunctival vasodilation with flare • Grade 4 intense inflammatory reaction • (+1) fibrin formation and seclusion of pupils

[2] = Stability (half-life) in human serum, intact peptide by UPLC-MS; assay type: in vitro ADME; conditions: human serum (50% in FIG. 5; 10 and 50% in PBS), 0.1 mM peptide
Protocol: FIG. 5: Stability of JNK inhibitors with SEQ ID NOs: 172, 196 and 197 in 50% human serum. The JNK inhibitor with SEQ ID NO: 196 was totally degraded into amino acids residues within 6 hours (A). The JNK inhibitor with SEQ ID NO: 172 was completely degraded only after 14 days (B). The JNK inhibitor with SEQ ID NO: 197 was stable at least up to 30 days (B).
The JNK inhibitors with the sequence of SEQ ID NOs: 196, 197, and 172 (0.1 mM final concentration) were digested in human serum (10 and 50% in PBS 1×). The experiment was performed as described by Tugyi et al. (Proc Natl Acad Sci USA, 2005, 413-418). The remaining intact peptide was quantified by UPLC-MS. Stability was assessed for SEQ ID NOs: 196, 197, and 172 identically but in two separate assays. While the JNK inhibitor with SEQ ID NO: 196 was totally degraded into amino acids residues within 6 hours, the JNK inhibitor with SEQ ID NO: 172 was completely degraded only after 14 days. The JNK inhibitor with SEQ ID NO: 197 was still stable after 30 days.

Hela cells = assay: Internalization of transporter constructs, 24 hours, fluorescence of cell extracts (FIG. 6); assay type: cell-based
Protocol: The transporter sequences analyzed correspond to SEQ ID NOs: 52-94 plus SEQ ID NOs: 45, 47, 46, 43 and 99 (FIG. 6a) and SEQ ID NOs: 100-147 (FIG. 6b). […] Hela cells were incubated 24 hours in 96 well plate with […] of the respective transporters. The cells were then washed twice with an acidic buffer (0.2M Glycin, 0.15M NaCl, pH 3.0) and twice with PBS. Cells were broken by the addition of RIPA lysis buffer. The relative amount of internalized peptide was then determined by reading the fluorescence intensity (Fusion Alpha plate reader; PerkinElmer) of each extract followed by background subtraction.
Hela cells were incubated 24 hours in 96 well plate with […] of the r3-L-TAT-derived transporters. The cells were then washed twice with an acidic buffer (0.2M Glycin, 0.15M NaCl, pH 3.0) and twice with PBS. Cells were broken by the addition of RIPA lysis buffer. The relative amount of internalized peptide was then determined by reading the fluorescence intensity (Fusion Alpha plate reader; PerkinElmer) of each extract followed by background subtraction

hJNK2, sequence (P45984 whole entry, looked up): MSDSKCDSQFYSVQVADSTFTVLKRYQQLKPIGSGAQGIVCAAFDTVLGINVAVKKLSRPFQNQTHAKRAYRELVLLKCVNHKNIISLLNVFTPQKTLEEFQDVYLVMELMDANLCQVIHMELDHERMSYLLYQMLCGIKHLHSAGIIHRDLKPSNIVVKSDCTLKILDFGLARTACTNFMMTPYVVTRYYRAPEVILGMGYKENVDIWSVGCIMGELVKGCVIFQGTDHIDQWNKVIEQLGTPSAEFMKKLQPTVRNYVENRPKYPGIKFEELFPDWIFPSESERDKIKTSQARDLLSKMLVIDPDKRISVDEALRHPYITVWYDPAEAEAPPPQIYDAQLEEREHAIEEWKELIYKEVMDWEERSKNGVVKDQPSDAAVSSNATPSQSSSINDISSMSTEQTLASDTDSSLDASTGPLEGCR

Compound	pIC50 (hJNK2)	pIC50 (hJNK3)	pIC50 (hJNK1)	other results
CC(C)C[C@H](NC(=O)[C@H](CC(N)=O)NC(=O)[C@H](CC(C)C)NC(=O)[C@@H](NC(=O)[C@@H](NC(=O)[C@@H]1CCCN1C(=O)[C@H](CCCNC(=N)N)NC(=O)[C@H](CCCCN)NC(=O)[C@@H]1CCCN1C(=O)[C@H](N)CCCNC(=N)N)[C@@H](C)O)[C@@H](C)O)C(=O)N[C@@H](Cc1ccccc1)C(N)=O [SEQ ID NO: 2] (H-[dR]PKRPTTLNLF-NH2)	6.37	6.99	–	–
CC(C)C[C@H](NC(=O)[C@H](CC(N)=O)NC(=O)[C@H](CC(C)C)NC(=O)[C@@H](NC(=O)[C@@H](NC(=O)[C@@H]1CCCN1C(=O)[C@H](CCCNC(=N)N)NC(=O)[C@@H](CCCCN)NC(=O)[C@@H]1CCCN1C(=O)[C@@H](N)CCCNC(=N)N)[C@@H](C)O)[C@@H](C)O)C(=O)N[C@@H](Cc1ccccc1)C(N)=O [SEQ ID NO: 3] (H-RP[dK]RPTTLNLF-NH2)	5.92	6.44	6.51	–
CC(C)C[C@H](NC(=O)[C@@H](NC(=O)[C@@H](NC(=O)[C@@H]1CCCN1C(=O)[C@H](CCCNC(=N)N)NC(=O)[C@H](CCCCN)NC(=O)[C@@H]1CCCN1C(=O)[C@@H](N)CCCNC(=N)N)[C@@H](C)O)[C@@H](C)O)C(=O)N[C@H](CC(N)=O)C(=O)N[C@@H](CC(C)C)C(=O)N[C@@H](Cc1ccccc1)C(N)=O [SEQ ID NO: 5] (H-RPKRPTTL[dN]LF-NH2)	–	6.41	6.46	–
CC(C)C[C@H](NC(=O)[C@@H](NC(=O)[C@@H](NC(=O)[C@@H]1CCCN1C(=O)[C@H](CCCNC(=N)N)NC(=O)[C@H](CCCCN)NC(=O)[C@@H]1CCCN1C(=O)[C@@H](N)CCCNC(=N)N)[C@@H](C)O)[C@@H](C)O)C(=O)N[C@H](CCCNC(=N)N)C(=O)N[C@@H](CC(C)C)C(=O)N[C@@H](Cc1ccccc1)C(N)=O [SEQ ID NO: 6] (H-RPKRPTTL[dR]LF-NH2)	6.45	6.92	7.04	–
CC(C)C[C@H](NC(=O)[C@H](CC(N)=O)NC(=O)[C@H](CC(C)C)NC(=O)[C@@H](NC(=O)[C@@H](NC(=O)[C@@H]1CCCN1C(=O)[C@H](CCCNC(=N)N)NC(=O)[C@H](CCCCN)NC(=O)[C@@H]1CCCN1C(=O)[C@@H](N)CCCNC(=N)N)[C@@H](C)O)[C@@H](C)O)C(=O)N[C@H](Cc1ccccc1)C(N)=O [SEQ ID NO: 7] (H-RPKRPTTLNL[dF]-NH2)	6.56	7.05	–	–
C[C@@H]1C[C@H]2[C@@H]3CCC4=CC(=O)C=C[C@]4(C)[C@@]3(F)[C@@H](O)C[C@]2(C)[C@@]1(O)C(=O)CO [dexamethasone, reference compound]	–	–	–	clinical score of ocular inflammation, mean score (mean±SEM) [1]: 0.8±0.2; clinical score of ocular inflammation, median [1]: 0.5
GRKKRRQRRRPPRPKRPTTLNLFPQVPRSQD [SEQ ID NO: 196, reference compound]	–	–	–	totally degraded into amino acids residues within [2]: ≤ 6 h
H-RPKRPTTLNLF-NH2 [SEQ ID NO: 193]	6.74	7.17	7.40	–
rYKRrQRRr ([dR]YKR[dR]QRR[dR]) [SEQ ID NO: 142]	–	–	–	transporter activity (Y in position 2) (Hela cells): highest transporter activity
